The numbers were not newly measured in patent US20250221954A1, “METHODS TO TREAT, PREVENT, OR REDUCE HYPERAMMONEMIA” (priority 2024, published 2025), which cites them from elsewhere.

Each structure is given as a SMILES string.

The conditions of series [1]: decrease in clearance with increased dose.
For series [2] the following is noted: prolonged, multiday maintenance of phenylacetate infusions.

For the compound `O=C([O-])c1ccccc1.[Na+]` [benzoate, sodium benzoate], the elimination result in series [1] was “saturable, non-linear elimination”.

Take `O=C([O-])Cc1ccccc1.[Na+]` [phenylacetate, sodium phenylacetate]: the elimination result in series [1] is “saturable, non-linear elimination”. In addition, the potential neurotoxicity entry in series [2] was “somnolence, fatigue, and lightheadedness”.
